From patent US6451813B1, “Treatment of gastroparesis in certain patient groups” (R. T. Alamo Ventures I, LLC, priority 2001, dated 2002)
One block for each molecule: values may come before it.

Key:
[1] = test system: PDE1 partially purified from bovine heart; assay: PDE1 biochemical enzyme assay ([3H]cAMP hydrolysis); conditions: 100 μM; for % Inhibition of PDE1: Example 3
Procedure: In this example, a racemic mixture of flosequinan and the (+) and (−) enantiomers of flosequinan were subjected to biochemical enzyme assays to determine their respective percent inhibition of a variety of phosphodiesterases (PDE1-PDE6). The reaction conditions for each PDE assay were as follows. PDE1: PDE1 partially purified from bovine heart was used. A racemic mixture of flosequinan, and each enantiomer of flosequinan, all at a molar concentration of 100 μM, were independently incubated with 13 μg PDE1 enzyme, 1.0 μM [^3H]cAMP and CaCl2/calmodulin in Tris buffer pH 7.5 for 20 minutes at 30° C. The reaction was terminated by boiling for 2 minutes, and the resulting AMP was converted to adenosine by addition of 10 mg/ml snake venom nucleotidase and further incubation at 30° C. for 10 minutes. Unhydrolyzed cAMP was bound to AGI-X2 resin, and the remaining [^3H]adenosine in the aqueous phase was quantitated by scintillation counting.

[2] = target: T1, PDE6 partially purified from bovine retinal rod and activated by trypsin (Bos taurus, UniProt P11541+P23439); assay: PDE6 biochemical enzyme assay ([3H]cGMP hydrolysis); conditions: Example 1; versus Viagra 0.3 μM
T1 construct: from tissue; host or cells: bovine retinal rod
T1 sequence (P11541 2-856 limits assumed): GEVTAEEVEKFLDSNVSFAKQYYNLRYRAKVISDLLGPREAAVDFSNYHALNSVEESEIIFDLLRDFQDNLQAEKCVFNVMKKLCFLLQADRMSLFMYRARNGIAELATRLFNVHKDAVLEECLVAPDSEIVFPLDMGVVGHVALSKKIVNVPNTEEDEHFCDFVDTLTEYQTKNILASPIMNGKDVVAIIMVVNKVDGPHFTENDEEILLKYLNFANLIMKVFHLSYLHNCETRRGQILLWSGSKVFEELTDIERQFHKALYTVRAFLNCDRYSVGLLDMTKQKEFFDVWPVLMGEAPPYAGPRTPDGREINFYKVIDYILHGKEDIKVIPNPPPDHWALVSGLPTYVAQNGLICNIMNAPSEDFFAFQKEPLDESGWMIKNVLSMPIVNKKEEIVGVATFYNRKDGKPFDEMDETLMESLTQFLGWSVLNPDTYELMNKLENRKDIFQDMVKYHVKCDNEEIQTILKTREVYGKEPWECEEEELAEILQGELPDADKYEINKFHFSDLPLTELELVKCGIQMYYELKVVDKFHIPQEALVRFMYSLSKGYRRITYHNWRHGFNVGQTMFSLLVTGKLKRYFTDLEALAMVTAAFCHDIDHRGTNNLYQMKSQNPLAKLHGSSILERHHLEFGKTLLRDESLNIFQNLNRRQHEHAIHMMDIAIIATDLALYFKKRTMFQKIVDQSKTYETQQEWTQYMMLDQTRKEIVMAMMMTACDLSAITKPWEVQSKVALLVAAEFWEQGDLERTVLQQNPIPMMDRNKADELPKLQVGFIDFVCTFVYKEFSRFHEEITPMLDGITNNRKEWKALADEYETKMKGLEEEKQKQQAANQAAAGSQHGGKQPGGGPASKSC
T1 sequence (P23439 2-850 limits assumed): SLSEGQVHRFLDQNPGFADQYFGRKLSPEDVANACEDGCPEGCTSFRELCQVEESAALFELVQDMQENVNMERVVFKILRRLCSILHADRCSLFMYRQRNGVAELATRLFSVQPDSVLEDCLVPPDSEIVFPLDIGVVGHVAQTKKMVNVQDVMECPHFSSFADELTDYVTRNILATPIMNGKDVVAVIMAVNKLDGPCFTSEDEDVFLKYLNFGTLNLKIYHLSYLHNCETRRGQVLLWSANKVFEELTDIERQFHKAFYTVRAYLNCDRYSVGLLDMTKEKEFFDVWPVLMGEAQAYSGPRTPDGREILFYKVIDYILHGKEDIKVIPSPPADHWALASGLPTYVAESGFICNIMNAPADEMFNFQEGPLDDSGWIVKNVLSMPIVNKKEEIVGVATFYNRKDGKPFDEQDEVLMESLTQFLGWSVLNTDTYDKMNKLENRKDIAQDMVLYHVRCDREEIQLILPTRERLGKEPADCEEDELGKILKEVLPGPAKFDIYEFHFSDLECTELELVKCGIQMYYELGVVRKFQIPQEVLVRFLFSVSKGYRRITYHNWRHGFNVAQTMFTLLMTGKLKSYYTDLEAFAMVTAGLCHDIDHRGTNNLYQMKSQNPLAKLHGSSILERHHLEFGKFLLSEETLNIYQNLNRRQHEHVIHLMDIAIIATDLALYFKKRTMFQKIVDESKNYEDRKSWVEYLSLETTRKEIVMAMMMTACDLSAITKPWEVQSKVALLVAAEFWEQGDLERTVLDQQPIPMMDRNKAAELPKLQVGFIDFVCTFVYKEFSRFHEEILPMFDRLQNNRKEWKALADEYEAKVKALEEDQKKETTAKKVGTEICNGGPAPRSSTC

[3] = Solubility of flosequinan; assay type: physicochemical; conditions: water; organic solvents
From the text: Thus, while the present invention is not limited by the form of oral administration, aqueous and organic solution of flosequinan for oral administration is contemplated. Likewise, flosequinan can be associated with a solid pharmaceutical carrier for solid oral administration (i.e., in pill form).

[4] = cited from earlier work
[5] = target: T2, PDE3 partially purified from human platelets (Homo sapiens, UniProt Q14432); assay: PDE3 biochemical enzyme assay ([3H]cAMP hydrolysis); conditions: 100 μM
T2 construct: PDE3 partially purified from human platelets was used; from tissue; host or cells: human platelets
Procedure: PDE3: PDE3 partially purified from human platelets was used. A racemic mixture of flosequinan, and each enantiomer of flosequinan, all at a molar concentration of 100 μM, were independently incubated with 13 μg PDE3 enzyme and 1 μM cAMP containing 0.01 μM [^3H]cAMP in Tris buffer pH 7.5 for 20 minutes at 30° C. The reaction was terminated by boiling for 2 minutes, and the resulting AMP was converted to adenosine by addition of 10 mg/ml snake venom nucleotidase and further incubation at 30° C. for 10 minutes. Unhydrolyzed cAMP was bound to AGI-X2 resin, and the remaining [^3H]adenosine in the aqueous phase was quantitated by scintillation counting.

[6] = following oral administration; cited from earlier work

T2 sequence (Q14432 whole entry): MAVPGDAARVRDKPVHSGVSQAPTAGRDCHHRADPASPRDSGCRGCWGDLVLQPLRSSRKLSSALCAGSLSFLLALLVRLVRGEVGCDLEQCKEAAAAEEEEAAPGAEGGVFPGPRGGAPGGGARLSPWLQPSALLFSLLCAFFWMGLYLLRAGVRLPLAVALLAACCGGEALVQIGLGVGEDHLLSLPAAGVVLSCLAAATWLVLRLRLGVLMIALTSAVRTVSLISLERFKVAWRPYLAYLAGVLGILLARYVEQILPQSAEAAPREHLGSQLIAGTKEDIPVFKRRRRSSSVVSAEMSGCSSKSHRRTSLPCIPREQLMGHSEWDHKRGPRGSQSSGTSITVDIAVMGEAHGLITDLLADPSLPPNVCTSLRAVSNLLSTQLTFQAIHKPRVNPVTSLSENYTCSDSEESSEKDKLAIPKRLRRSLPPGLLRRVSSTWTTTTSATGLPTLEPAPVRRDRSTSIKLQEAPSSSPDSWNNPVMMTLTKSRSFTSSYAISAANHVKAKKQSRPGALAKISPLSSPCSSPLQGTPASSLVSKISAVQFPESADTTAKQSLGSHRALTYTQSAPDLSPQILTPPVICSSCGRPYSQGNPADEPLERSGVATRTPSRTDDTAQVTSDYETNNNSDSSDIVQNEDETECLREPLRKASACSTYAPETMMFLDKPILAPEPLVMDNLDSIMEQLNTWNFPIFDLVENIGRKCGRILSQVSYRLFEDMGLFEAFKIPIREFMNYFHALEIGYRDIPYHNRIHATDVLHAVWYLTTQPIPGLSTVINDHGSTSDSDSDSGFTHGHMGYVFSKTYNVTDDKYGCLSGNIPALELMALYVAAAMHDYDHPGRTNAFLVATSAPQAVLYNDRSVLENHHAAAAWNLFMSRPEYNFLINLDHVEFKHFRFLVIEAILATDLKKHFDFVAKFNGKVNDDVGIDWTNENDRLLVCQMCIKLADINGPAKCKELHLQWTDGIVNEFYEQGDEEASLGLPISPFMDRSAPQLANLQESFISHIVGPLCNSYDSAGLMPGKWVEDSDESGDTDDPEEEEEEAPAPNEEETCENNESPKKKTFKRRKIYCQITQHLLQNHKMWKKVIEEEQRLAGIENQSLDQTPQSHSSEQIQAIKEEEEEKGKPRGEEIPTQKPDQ

- % Inhibition of PDE1 [1]: 31%
- times more compound on a molar basis than Viagra for around 50% inhibition of PDE6 [2]: more than 300 times
SMILES: Cn1cc([S+](C)[O-])c(=O)c2ccc(F)cc21 (racemic) [Flosequinan, 7-fluoro-1-methyl-3-(methylsulphinyl)-4(1H)-quinolone]
- solubility [3]: water soluble and is soluble in many organic solvents
- time of peak plasma concentrations of flosequinan ([4]; following oral administration): 1 to 2 h
- time of peak metabolite plasma levels ([4]; following oral dosage of flosequinan): about seven
- mean absolute bioavailability ([4]; oral, single dose of fifty milligrams): 72%

- % Inhibition of PDE1 [1]: 11%
SMILES: Cn1cc([S+](C)[O-])c(=O)c2ccc(F)cc21 (single isomer, unassigned; (-)) [(−)-flosequinan]

- PDE1 inhibitory activity compared with the (−) enantiomer of flosequinan [1]: more PDE1 and PDE3 inhibitory activity
- % Inhibition of PDE1 [1]: 28%
- PDE3 inhibitory activity compared with the (−) enantiomer of flosequinan [5]: more PDE1 and PDE3 inhibitory activity
SMILES: Cn1cc([S@@+](C)[O-])c(=O)c2ccc(F)cc21 [(+)-flosequinan]

SMILES: O=C1CCc2cc(OCCCCc3nnnn3C3CCCCC3)ccc2N1 [cilostazol, 6-[4-(1-cyclohexyl-1H-tetrazol-5-yl)butoxy]-3,4-dihydro-2(1H)-quinolinone]
- time of peak plasma concentrations of cilostazol [6]: 2 to 4 h
